Results taken from PMC5964349, “A Single-Domain Response Regulator Functions as an Integrating Hub To Coordinate General Stress Response and Development in Alphaproteobacteria” (mBio, 2018).

Experiments:
Assay in all cases: autophosphorylation, SDS-PAGE autoradiography
Format in all cases: biochemical
CC3170 = target: T1, CC3170 (Caulobacter vibrioides, UniProt Q9A3N2); conditions: 500 µM ATP with [γ-32P]ATP; 5 mM MgCl2, pH 8.0, room temperature, 30 min; labelled compound
T1 construct: gene CC_3170; recombinant from E. coli BL21, Ni-NTA purified
T1 sequence (Q9A3N2 1-473): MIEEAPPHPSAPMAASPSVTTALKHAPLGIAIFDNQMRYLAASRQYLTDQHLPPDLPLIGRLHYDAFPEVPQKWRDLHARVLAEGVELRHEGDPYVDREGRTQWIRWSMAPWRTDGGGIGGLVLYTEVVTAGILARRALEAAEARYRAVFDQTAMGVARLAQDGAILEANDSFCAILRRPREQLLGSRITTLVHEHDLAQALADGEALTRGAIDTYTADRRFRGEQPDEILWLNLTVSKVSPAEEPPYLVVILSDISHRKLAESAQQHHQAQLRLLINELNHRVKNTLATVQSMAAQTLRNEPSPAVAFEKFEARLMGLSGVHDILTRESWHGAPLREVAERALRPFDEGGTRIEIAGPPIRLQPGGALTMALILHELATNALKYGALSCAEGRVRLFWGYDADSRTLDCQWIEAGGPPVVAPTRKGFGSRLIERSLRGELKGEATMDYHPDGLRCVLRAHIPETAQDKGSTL

CC1683 = target: T2, CC1683 (Caulobacter vibrioides, UniProt Q9A7N7); conditions: 500 µM ATP with [γ-32P]ATP; 5 mM MgCl2, pH 8.0, room temperature, 30 min; labelled compound
T2 construct: gene CC_1683; recombinant from E. coli BL21, Ni-NTA purified
T2 sequence (Q9A7N7 1-555): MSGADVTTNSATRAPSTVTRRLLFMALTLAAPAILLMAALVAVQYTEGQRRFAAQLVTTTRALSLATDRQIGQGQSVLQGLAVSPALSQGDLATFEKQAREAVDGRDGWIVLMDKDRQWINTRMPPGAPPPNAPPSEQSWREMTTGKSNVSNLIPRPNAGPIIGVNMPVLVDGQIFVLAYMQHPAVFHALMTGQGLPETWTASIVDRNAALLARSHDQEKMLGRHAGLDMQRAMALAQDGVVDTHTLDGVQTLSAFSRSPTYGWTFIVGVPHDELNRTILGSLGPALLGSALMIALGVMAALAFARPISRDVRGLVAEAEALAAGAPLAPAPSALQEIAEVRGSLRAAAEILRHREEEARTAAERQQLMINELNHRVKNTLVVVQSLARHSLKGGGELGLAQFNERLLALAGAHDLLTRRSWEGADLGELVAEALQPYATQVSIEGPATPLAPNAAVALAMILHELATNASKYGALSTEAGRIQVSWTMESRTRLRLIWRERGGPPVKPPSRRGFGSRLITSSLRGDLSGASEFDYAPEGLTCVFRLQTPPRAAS

CC2874 = target: T3, CC2874 (Caulobacter vibrioides, UniProt Q9A4G0); conditions: 500 µM ATP with [γ-32P]ATP; 5 mM MgCl2, pH 8.0, room temperature, 15 min; labelled compound
T3 construct: gene CC_2874; recombinant from E. coli BL21, MBP-tagged (partly cleaved), Ni-NTA purified
T3 sequence (Q9A4G0 1-794): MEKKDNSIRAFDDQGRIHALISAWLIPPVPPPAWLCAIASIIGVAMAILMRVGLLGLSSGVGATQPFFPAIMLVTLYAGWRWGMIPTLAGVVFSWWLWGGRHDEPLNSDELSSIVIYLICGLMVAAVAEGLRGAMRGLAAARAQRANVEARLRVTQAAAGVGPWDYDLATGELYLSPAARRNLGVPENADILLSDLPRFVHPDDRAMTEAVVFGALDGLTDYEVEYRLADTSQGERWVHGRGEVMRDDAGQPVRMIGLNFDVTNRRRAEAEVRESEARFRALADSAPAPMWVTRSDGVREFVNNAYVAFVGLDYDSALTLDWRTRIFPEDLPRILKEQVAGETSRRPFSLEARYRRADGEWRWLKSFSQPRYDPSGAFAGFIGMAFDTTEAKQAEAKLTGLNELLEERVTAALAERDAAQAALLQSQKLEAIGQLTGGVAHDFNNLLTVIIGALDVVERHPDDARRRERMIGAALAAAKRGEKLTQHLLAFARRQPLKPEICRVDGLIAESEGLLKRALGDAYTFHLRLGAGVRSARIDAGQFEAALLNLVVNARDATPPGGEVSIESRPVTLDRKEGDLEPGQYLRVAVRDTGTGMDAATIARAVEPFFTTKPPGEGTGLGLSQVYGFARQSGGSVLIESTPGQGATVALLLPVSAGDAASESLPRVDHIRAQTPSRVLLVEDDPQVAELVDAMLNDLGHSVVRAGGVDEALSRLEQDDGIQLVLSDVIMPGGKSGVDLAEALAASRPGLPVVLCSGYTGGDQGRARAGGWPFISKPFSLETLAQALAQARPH

CC0836 = target: T4, CC0836 (Caulobacter vibrioides, UniProt Q9A9X5); conditions: 500 µM ATP with [γ-32P]ATP; 5 mM MgCl2, pH 8.0, room temperature, 30 min; labelled compound
T4 construct: gene CC_0836; recombinant from E. coli BL21, Ni-NTA purified
T4 sequence (Q9A9X5 1-754): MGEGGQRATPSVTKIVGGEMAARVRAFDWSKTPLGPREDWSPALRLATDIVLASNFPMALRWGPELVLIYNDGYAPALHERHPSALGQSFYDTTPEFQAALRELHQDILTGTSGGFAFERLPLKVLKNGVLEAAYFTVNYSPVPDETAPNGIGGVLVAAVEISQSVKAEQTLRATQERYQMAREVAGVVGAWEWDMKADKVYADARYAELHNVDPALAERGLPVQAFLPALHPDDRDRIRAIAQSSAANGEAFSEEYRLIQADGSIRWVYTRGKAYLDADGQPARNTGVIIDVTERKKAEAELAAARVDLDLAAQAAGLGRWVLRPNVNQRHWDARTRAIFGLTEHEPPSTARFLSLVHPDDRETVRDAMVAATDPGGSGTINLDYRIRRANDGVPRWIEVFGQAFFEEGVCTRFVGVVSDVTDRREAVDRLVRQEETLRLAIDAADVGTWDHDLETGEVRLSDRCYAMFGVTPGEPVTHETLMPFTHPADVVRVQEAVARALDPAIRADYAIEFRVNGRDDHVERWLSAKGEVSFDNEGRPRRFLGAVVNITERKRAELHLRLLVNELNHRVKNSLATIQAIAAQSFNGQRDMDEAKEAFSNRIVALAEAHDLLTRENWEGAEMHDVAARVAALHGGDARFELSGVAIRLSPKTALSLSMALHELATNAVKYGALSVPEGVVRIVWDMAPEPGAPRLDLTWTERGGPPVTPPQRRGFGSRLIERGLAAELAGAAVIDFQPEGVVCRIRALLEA

CC2554 = target: T5, CC2554 (Caulobacter vibrioides, UniProt Q9A599); conditions: 500 µM ATP with [γ-32P]ATP; 5 mM MgCl2, pH 8.0, room temperature, 15 min; labelled compound
T5 construct: gene CC_2554; recombinant from E. coli BL21, Ni-NTA purified
T5 sequence (Q9A599 1-338): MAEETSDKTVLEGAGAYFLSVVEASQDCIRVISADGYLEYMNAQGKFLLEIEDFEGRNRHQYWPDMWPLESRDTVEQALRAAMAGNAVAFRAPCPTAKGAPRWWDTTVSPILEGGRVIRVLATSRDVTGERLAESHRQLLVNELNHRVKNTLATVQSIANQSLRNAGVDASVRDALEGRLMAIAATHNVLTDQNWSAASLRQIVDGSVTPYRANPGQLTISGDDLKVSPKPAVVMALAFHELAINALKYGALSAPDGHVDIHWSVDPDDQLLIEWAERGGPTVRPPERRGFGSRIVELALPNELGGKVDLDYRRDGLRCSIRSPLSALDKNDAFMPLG

CC3058 = target: T6, CC3058 (Caulobacter vibrioides, UniProt Q9A3Z2); conditions: 500 µM ATP with [γ-32P]ATP; 5 mM MgCl2, pH 8.0, room temperature, 30 min; labelled compound
T6 construct: gene CC_3058; recombinant from E. coli BL21, Ni-NTA purified
T6 sequence (Q9A3Z2 1-465): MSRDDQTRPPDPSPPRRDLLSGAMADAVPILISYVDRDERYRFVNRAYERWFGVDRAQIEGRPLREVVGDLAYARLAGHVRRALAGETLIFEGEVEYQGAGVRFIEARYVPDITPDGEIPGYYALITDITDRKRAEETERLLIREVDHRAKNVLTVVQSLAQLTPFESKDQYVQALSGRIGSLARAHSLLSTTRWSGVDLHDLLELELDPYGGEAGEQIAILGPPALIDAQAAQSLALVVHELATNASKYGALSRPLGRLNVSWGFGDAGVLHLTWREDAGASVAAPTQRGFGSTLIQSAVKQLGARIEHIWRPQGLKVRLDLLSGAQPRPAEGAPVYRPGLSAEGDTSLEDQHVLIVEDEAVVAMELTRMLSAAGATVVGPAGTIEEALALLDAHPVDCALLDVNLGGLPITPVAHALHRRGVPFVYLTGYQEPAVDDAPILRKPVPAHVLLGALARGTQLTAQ

[1] = target: T7, CC2874 lacking its C-terminal receiver domain (ΔREC) (Caulobacter vibrioides, UniProt Q9A4G0); conditions: 500 µM ATP with [γ-32P]ATP; 5 mM MgCl2, pH 8.0, room temperature, 15 min; labelled compound
T7 construct: gene CC_2874; recombinant from E. coli BL21, Ni-NTA purified

Structure (SMILES): Nc1ncnc2c1ncn2[C@@H]1O[C@H](COP(=O)(O)OP(=O)(O)OP(=O)(O)O)[C@@H](O)[C@H]1O [ATP]
- autophosphorylation, SDS-PAGE autoradiography (CC3170): Purified kinases CC0836, CC1683, CC3058, and CC3170 were mixed with ATP
- autophosphorylation, SDS-PAGE autoradiography (CC1683): Purified kinases CC0836, CC1683, CC3058, and CC3170 were mixed with ATP
- autophosphorylation, SDS-PAGE autoradiography (CC2874): Autophosphorylation of histidine kinases CC2554 (left) and CC2874 (right) and phosphotransfer to MrrA.
- autophosphorylation, SDS-PAGE autoradiography (CC0836): Purified kinases CC0836, CC1683, CC3058, and CC3170 were mixed with ATP
- autophosphorylation, SDS-PAGE autoradiography (CC2554): Autophosphorylation of histidine kinases CC2554 (left) and CC2874 (right) and phosphotransfer to MrrA.
- autophosphorylation, SDS-PAGE autoradiography (CC3058): Purified kinases CC0836, CC1683, CC3058, and CC3170 were mixed with ATP
- autophosphorylation, SDS-PAGE autoradiography [1]: this part of the kinase is not required for autophosphorylation and phosphotransfer to MrrA
